# From article PMC10011554, “BET inhibitor trotabresib in heavily pretreated patients with solid tumors and diffuse large B-cell lymphomas” (Nature Communications, 2023)
# Values joined by “and” are separate entries in the source; they are usually repeats but may differ in a detail not shown here. Identical values can stand only once.
# Legend:
# [1] = tested on: BCRP, MRP2, OAT1, OAT3, OATP1B1, OATP1B3 and OCT2; parameters: method as in Investigator's Brochure; conditions: MRP2, OAT1, OAT3, OATP1B1, OATP1B3 and OCT2, ref Investigator's Brochure; cited from earlier work
# [2] = tested on: advanced or unresectable solid tumors; experiment: Tumor response (RECIST v1.1/RANO), PFS and OS in phase I study, parts A and C; assay type: in vivo, human
# Procedure: Secondary objectives were the preliminary efficacy of trotabresib in terms of clinical benefit rate (CR + PR + SD of ≥4 months’ duration), ORR (CR + PR), duration of response or SD, PFS, OS, and the PK of trotabresib. In addition, part C assessed the effects of food on the PK and the safety of trotabresib as a secondary objective. The pharmacodynamics of trotabresib were assessed as an exploratory objective.
# Response was assessed using Response Evaluation Criteria in Solid Tumors (RECIST) v1.1[54] in patients with solid tumors, International Working Group criteria in patients with DLBCL[55], and Response Assessment in Neuro-Oncology (RANO) criteria[56] in patients with CNS tumors (astrocytoma and glioblastoma). For patients with BCC, the response was assessed using a combination of radiological assessment of target lesions per RECIST v1.1, digital clinical photography assessed per World Health Organization (WHO) criteria, and punch biopsies to confirm CR. PK parameters assessed included Cmax, tmax, AUC, t½, apparent clearance (CL/F), and apparent volume of distribution (Vz/F).
# Bayesian logistic regression model based on dose-limiting toxicity was used to provide initial guidance for dose recommendations in the dose-escalation phase. The final decision was reached by considering the totality of safety, PK, and PD data. For binary efficacy endpoints, two-sided 95% Clopper–Pearson exact confidence intervals were provided. For time-to-event endpoints (PFS and OS), the median and 95% CI were estimated using the Kaplan–Meier method.
# [3] = tested on: OAT3; parameters: method as in Investigator's Brochure; conditions: OAT3, 30 µM, ref Investigator's Brochure; cited from earlier work
# [4] = part A (N = 69), 02 Dec 2019 cutoff
smiles,measurement,setting,value
Cn1cc(-c2cc(S(C)(=O)=O)ccc2OCC2CC2)c2ccccc2c1=O [trotabresib],transporter substrate status,[1],not a substrate
same,patients on treatment ≥24 cycles with sustained SD,[2]; part A,five
same,"clinical benefit rate (CBR; CR, PR, or SD ≥4 months)",[2]; part A (N = 69),17.4%
same,objective response rate (ORR; CR or PR),[2]; part A (N = 69),2.9%
same,subjects with SD,[2]; [4],33.3%
same,subjects with SD ≥ 4 months,[2]; [4],14.5%
same,subjects with confirmed CR,[2]; [4],1.4%
same,subjects with confirmed PR,[2]; [4],1.4%
same,Median OS (95% CI),[2]; part A (n = 69),189 (161–258) days
same,Median PFS (95% CI),[2]; part A (n = 69),57 (52–81) days
same,OS range,[2]; part A (n = 69),15 to 853 days
same,PFS range,[2]; part A (n = 69),11 to 945 days
same,subjects with stable disease,"[2]; part A, 10 December 2018 cutoff",27.5%
same,duration of confirmed partial response,"[2]; part A, one patient with endometrial cancer",8 cycles
same,duration of complete response,"[2]; part A, one patient with grade 2 diffuse astrocytoma",19 cycles
same,total treatment duration,"[2]; part A, one patient with salivary gland cancer, ongoing at cycle 53",4.0 years
same,time on treatment,"[2]; part A, one patient with thymic cancer (38 cycles)",3.1 years
same,further patients on treatment ≥1 year with sustained SD,[2]; part C,seven
same,best response CR,[2]; part C (N = 41),0%
same,best response PD,[2]; part C (N = 41),19.5%
same,best response PR,[2]; part C (N = 41),0%
same,CBR,"[2]; part C (N = 41), treated population",31.7%
same,ORR,"[2]; part C (N = 41), treated population, confirmed responses",0.0%
same,Median OS (95% CI),[2]; part C (n = 41),508 days and 508 (239–NE) days
same,Median PFS (95% CI),[2]; part C (n = 41),114 (84–239) days
same,OS range,[2]; part C (n = 41),33 to 508 days
same,PFS range,[2]; part C (n = 41),33 to 438 days
same,reduction in tumor size (minor response),"[2]; part C, one patient with refractory high-grade astrocytoma",38%
same,treatment duration,"[2]; part C, one patient with treatment-refractory high-grade astrocytoma, ongoing",2.5 years
same,inhibition of mediated transport,[3],53.6%
